Laboratory results as given in patent US20100267784A1, “NOVEL 4,5-DIHYDROISOXAZOLES WITH ESTROGENIC ACTIVITY” (priority 2007, published 2010).

Tests used:
Assay type in all cases: cell-based
[1] = target: T1, ERα (Homo sapiens, UniProt P03372); test: ERα reporter (luciferase) transactivation assay in transfected HEK293 cells; parameters: expressed in transfected cells; host or cells: HEK293; settings: sample concentration 10 μM, 24 hours, mean of at least three independent transfections
T1 sequence (P03372 1-595): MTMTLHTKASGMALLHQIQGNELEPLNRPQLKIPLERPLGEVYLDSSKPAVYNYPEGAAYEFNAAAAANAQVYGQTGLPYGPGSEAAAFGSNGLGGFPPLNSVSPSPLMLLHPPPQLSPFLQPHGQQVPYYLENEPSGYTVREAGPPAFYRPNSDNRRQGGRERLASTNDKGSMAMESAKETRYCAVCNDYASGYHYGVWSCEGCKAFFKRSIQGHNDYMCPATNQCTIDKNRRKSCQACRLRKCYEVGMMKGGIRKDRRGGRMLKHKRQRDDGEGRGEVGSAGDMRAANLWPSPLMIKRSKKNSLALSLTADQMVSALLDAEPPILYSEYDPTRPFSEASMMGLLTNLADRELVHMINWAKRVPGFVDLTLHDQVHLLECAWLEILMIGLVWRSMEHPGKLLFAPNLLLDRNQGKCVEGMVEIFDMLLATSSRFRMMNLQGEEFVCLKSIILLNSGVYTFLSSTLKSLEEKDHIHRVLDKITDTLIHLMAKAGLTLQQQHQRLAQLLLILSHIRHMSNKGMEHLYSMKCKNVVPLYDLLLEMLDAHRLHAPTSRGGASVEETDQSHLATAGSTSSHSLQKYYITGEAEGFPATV
Outline: (§1)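 HEK293 cells in phenol-free DMEM with 5% delipidated FBS were calcium-phosphate transfected for 4 h with ERα or ERβ vector, pERE2TATA-LUC reporter and pCMVβ control. Test compound (10 μM) or vehicle was applied for 24 h, then luciferase and β-galactosidase were measured. Values are means ±SEM of ≥3 transfections.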

[2] = target: ERβ (Homo sapiens, UniProt Q92731); test: ERβ reporter (luciferase) transactivation assay in transfected HEK293 cells; parameters: expressed in transfected cells; host or cells: HEK293; settings: sample concentration 10 μM, 24 hours, mean of at least three independent transfections
Outline: as §1

[3] = target: T1, ERα; test: ERα antagonism reporter (luciferase) assay in transfected COS-1 cells; parameters: expressed in transfected cells; host or cells: COS-1; settings: sample concentration 10 μM with 100 nM E2, complete antagonism corresponding to 5.7, 18 hours
Protocol: Determination of the Antiestrogen Activity of the Compounds.
One day before transfection, COS-1 cells were seeded into 1 ml of DMEM (Dulbecco's modified Eagle medium, Gibco) with 10% delipidated fetal bovine serum and 0,25% (vol/vol) Penicillin-Streptomysin (Euroclone) at a density of 70×10^3 cells/well. […] After transfection, the cells received treatment with test compounds giving a final concentration of 10 μM for each compound. In the antagonist test the wells were also treated with 10^−7 M estradiol. After 18 hours, the cells were washed, lysed and assayed for luciferase and normalization for β-galactosidase activities and protein concentrations. The cells were washed with 100 μl of cold phosphate buffered saline (PBS), lysed with 35 μl 1× Reporter lysis Buffer (Promega) and frosted (−70° C.) for 30 minutes. Cell lysates were placed in 1.5 ml of propylene centrifuge tubes and centrifuged with 13200 g for 5 min in room temperature. For β-galactosidase assay 10 μl of supernatant from each cell extract was transferred to a 96-well plate (96 well Elisa Microplates, PS, Microcon) and incubated for 10 min at 37° C. with 65 μl of reaction mixture consisting 0.76 gl 100×Mg-buffer, 12.5 μl ONPG (4 mg/ml), and 54.3 μl of sodium-phosphate buffer (pH 7). The reaction was stopped with treatment of 125 μl Na2CO3. […] For the study of protein concentrations 5 μl of the supernatant was transferred to a 96-well plate (96 well Elisa Microplates, PS, Microcon) and mixed with 200 μl of 1× Bio-rad protein assay reagent. The luciferase activities were measured with Thermo Luminoscan Ascent scanner and the protein concentrations and β-galactosidase activities with Thermo Labsystem Multiscan Ex scanner. Also blank and control samples were measured. During the maintenance, transfection, and treatment with tested compounds the cells were incubated in humidified atmosphere with 5% carbon dioxide at 37° C.

Chain of ERβ (Q92731 whole entry): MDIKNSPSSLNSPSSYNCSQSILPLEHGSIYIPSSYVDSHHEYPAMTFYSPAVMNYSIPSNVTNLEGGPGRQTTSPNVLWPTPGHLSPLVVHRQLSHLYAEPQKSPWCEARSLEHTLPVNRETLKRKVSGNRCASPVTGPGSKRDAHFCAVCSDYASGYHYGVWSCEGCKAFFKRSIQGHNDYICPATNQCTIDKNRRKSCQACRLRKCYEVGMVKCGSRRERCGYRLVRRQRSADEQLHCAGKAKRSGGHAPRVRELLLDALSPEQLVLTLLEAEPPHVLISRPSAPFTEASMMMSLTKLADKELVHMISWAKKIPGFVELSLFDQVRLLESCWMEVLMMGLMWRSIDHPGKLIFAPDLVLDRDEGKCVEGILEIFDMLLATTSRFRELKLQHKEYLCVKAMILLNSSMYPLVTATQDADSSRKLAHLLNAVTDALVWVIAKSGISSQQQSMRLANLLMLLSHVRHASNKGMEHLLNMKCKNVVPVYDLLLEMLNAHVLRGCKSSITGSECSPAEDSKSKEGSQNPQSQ

Oc1ccc(CC2=NOC(c3ccccc3)C2)cc1 (single isomer, unassigned) [84a, 3-(4-Hydroxy-benzyl)-5-phenyl-4,5-dihydro-isoxazole]
ERα receptor activation relative to 10 nM E2 corresponding 100 [1]: 4.8%
ERβ receptor activation relative to 10 nM E2 corresponding 100 [2]: 0.2%
ERα receptor antagonism relative to 100 nM E2 corresponding 100 [3]: 93.6

Oc1ccc(CC2=NOC(c3ccccc3)C2)cc1 (single isomer, unassigned) [84b, 3-(4-Hydroxy-benzyl)-5-phenyl-4,5-dihydro-isoxazole]
ERα receptor activation relative to 10 nM E2 corresponding 100 [1]: 7.6%
ERβ receptor activation relative to 10 nM E2 corresponding 100 [2]: 18.5%
ERα receptor antagonism relative to 100 nM E2 corresponding 100 [3]: 64.5

CC1(c2ccccc2)CC(CCc2ccccc2O)=NO1 (single isomer, unassigned) [85a, 3-[2-(2-Hydroxy-phenyl)-ethyl]-5-methyl-5-phenyl-4,5-dihydro-isoxazole]
ERα receptor activation relative to 10 nM E2 corresponding 100 [1]: 11.8%
ERβ receptor activation relative to 10 nM E2 corresponding 100 [2]: −0.4%
ERα receptor antagonism relative to 100 nM E2 corresponding 100 [3]: 95.6

CC1(c2ccccc2)CC(CCc2ccccc2O)=NO1 (single isomer, unassigned) [85b, 3-[2-(2-Hydroxy-phenyl)-ethyl]-5-methyl-5-phenyl-4,5-dihydro-isoxazole]
ERα receptor activation relative to 10 nM E2 corresponding 100 [1]: 21.7%
ERβ receptor activation relative to 10 nM E2 corresponding 100 [2]: 30.0%
ERα receptor antagonism relative to 100 nM E2 corresponding 100 [3]: 57.9

CC1(c2ccccc2)CC(CCc2cccc(O)c2)=NO1 (single isomer, unassigned) [86a, 3-[2-(3-Hydroxy-phenyl)-ethyl]-5-methyl-5-phenyl-4,5-dihydro-isoxazole]
ERα receptor activation relative to 10 nM E2 corresponding 100 [1]: 21.6%
ERβ receptor activation relative to 10 nM E2 corresponding 100 [2]: 0.5%
ERα receptor antagonism relative to 100 nM E2 corresponding 100 [3]: 87.3

CC1(c2ccccc2)CC(CCc2cccc(O)c2)=NO1 (single isomer, unassigned) [86b, 3-[2-(3-Hydroxy-phenyl)-ethyl]-5-methyl-5-phenyl-4,5-dihydro-isoxazole]
ERα receptor activation relative to 10 nM E2 corresponding 100 [1]: 7.1%
ERβ receptor activation relative to 10 nM E2 corresponding 100 [2]: −2.9%
ERα receptor antagonism relative to 100 nM E2 corresponding 100 [3]: 101.8

CC1(c2ccccc2)CC(CCc2ccc(O)cc2)=NO1 (single isomer, unassigned) [87a, 3-[2-(4-Hydroxy-phenyl)-ethyl]-5-methyl-5-phenyl-4,5-dihydro-isoxazole]
ERα receptor activation relative to 10 nM E2 corresponding 100 [1]: 39.7%
ERβ receptor activation relative to 10 nM E2 corresponding 100 [2]: 18.0%
ERα receptor antagonism relative to 100 nM E2 corresponding 100 [3]: 63.1

CC1(c2ccccc2)CC(CCc2ccc(O)cc2)=NO1 (single isomer, unassigned) [87b, 3-[2-(4-Hydroxy-phenyl)-ethyl]-5-methyl-5-phenyl-4,5-dihydro-isoxazole]
ERα receptor activation relative to 10 nM E2 corresponding 100 [1]: 18.7%
ERβ receptor activation relative to 10 nM E2 corresponding 100 [2]: 37.4%
ERα receptor antagonism relative to 100 nM E2 corresponding 100 [3]: 55.0

Oc1ccc(CCCC2=NOC(Cc3ccccc3)C2)cc1O (single isomer, unassigned) [102a, 5-Benzyl-3-[3-(3,4-dihydroxy-phenyl)-propyl]-4,5-dihydro-isoxazole]
ERα receptor activation relative to 10 nM E2 corresponding 100 [1]: 0.3%
ERβ receptor activation relative to 10 nM E2 corresponding 100 [2]: 1.3%
ERα receptor antagonism relative to 100 nM E2 corresponding 100 [3]: 115.2

Oc1ccc(CCCC2=NOC(Cc3ccccc3)C2)cc1O (single isomer, unassigned) [102b, 5-Benzyl-3-[3-(3,4-dihydroxy-phenyl)-propyl]-4,5-dihydro-isoxazole]
ERα receptor activation relative to 10 nM E2 corresponding 100 [1]: 2.1%
ERβ receptor activation relative to 10 nM E2 corresponding 100 [2]: −1.3%
ERα receptor antagonism relative to 100 nM E2 corresponding 100 [3]: 104.8

Oc1ccc(CCCC2=NOC(Cc3ccccc3)C2)cc1 (centres unmarked) [99ab, 5-Benzyl-3-[3-(4-hydroxy-phenyl)-propyl]-4,5-dihydro-isoxazole]
ERα receptor antagonism relative to 100 nM E2 corresponding 100 [3]: 132.9

Oc1ccc(CCCC2=NOC(Cc3ccc(O)cc3)C2)cc1 (centres unmarked) [101ab, 5-(4-Hydroxy-benzyl)-3-[3-(4-hydroxy-phenyl)-propyl]-4,5-dihydro-isoxazole]
ERα receptor antagonism relative to 100 nM E2 corresponding 100 [3]: 39.4
